Results reported in ChEMBL document CHEMBL1158018 (J Nat Prod, 1999).

How the values were obtained:
[1] = target: Prostaglandin G/H synthase 1 (Homo sapiens, UniProt P23219); experiment: Inhibition of PGHS1 assessed as conversion of arachidonic acid to prostaglandin
[2] = Antioxidant activity in liposomal model assessed as inhibition of ferrous ion-induced lipid peroxidation at 2 mM; assay type: functional; parameters: scale not given: the % may be the effect or the level left

Sequence of Prostaglandin G/H synthase 1 (P23219 whole entry): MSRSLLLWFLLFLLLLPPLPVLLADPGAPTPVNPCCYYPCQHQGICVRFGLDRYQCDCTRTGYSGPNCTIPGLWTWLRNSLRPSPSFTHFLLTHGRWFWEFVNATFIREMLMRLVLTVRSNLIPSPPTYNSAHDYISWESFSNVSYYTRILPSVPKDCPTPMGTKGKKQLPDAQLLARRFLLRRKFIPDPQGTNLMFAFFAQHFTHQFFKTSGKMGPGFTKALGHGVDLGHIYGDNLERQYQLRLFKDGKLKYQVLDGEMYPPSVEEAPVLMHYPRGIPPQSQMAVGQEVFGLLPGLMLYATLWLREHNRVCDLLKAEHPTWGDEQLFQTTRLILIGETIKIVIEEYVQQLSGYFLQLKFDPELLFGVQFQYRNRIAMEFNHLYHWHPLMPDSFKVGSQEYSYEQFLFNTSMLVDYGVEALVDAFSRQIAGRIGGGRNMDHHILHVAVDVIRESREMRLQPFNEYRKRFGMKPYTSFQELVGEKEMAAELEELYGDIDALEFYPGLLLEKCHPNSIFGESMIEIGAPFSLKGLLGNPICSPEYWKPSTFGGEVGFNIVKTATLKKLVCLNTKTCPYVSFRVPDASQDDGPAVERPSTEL

Oc1cc(O)c2cc(O)c(-c3ccc(O)c(O)c3)[o+]c2c1 [CYANIDIN]
IC50 [1]: 90 µM
Activity [2]: 57%
